Data: EP3991725B1, “NOVEL ENTERO-ANTISEPTIC FOR THE TREATMENT OF GASTROINTENSTINAL INFECTIONS IN HUMANS” (Ninkov, Dusan, priority 2020, dated 2022)

Key:
Streptococcus uberis = assay: Comparative in vitro examination of selected pathogens, zone diameter; assay type: cell-based; settings: (Müller)Hinton-Agar; amount used: The novel compound 0.05 mL; Cephalosporin 0.1 mL; Ampicillin 0.2 mL
Streptococcus pneumonia = assay: as above; assay type: cell-based; settings: (Müller)Hinton-Agar; amount used: The novel compound 0.05 mL; Cephalosporin 0.1 mL; Ampicillin 0.2 mL
Yersinia = assay type: cell-based; settings: (Müller)Hinton-Agar; amount used: The novel compound 0.05 mL; Cephalosporin 0.1 mL; Ampicillin 0.2 mL
Listeria monocytogenes = assay: Comparative in vitro examination of selected pathogens, zone diameter; assay type: cell-based; settings: (Müller)Hinton-Agar; amount used: The novel compound 0.05 mL; Cephalosporin 0.1 mL; Ampicillin 0.2 mL
[1] = system: Salmonella typhimurium DT104; assay: as above; assay type: cell-based; settings: (Müller)Hinton-Agar; amount used: The novel compound 0.05 mL; Cephalosporin 0.1 mL; Ampicillin 0.2 mL
Escherichia coli 0157H5 = assay: as above; assay type: cell-based; settings: (Müller)Hinton-Agar; amount used: The novel compound 0.05 mL; Cephalosporin 0.1 mL; Ampicillin 0.2 mL
Campylobacter = assay: as above; assay type: cell-based; settings: (Müller)Hinton-Agar; amount used: The novel compound 0.05 mL; Cephalosporin 0.1 mL; Ampicillin 0.2 mL
E. coli = assay: as above; assay type: cell-based; settings: (Müller)Hinton-Agar; amount used: The novel compound 0.05 mL; Cephalosporin 0.1 mL; Ampicillin 0.2 mL
Salmonella = assay: as above; assay type: cell-based; settings: (Müller)Hinton-Agar; amount used: The novel compound 0.05 mL; Cephalosporin 0.1 mL; Ampicillin 0.2 mL
Listeria = assay: as above; assay type: cell-based; settings: (Müller)Hinton-Agar; amount used: The novel compound 0.05 mL; Cephalosporin 0.1 mL; Ampicillin 0.2 mL
Vibrio = assay: as above; assay type: cell-based; settings: (Müller)Hinton-Agar; amount used: The novel compound 0.05 mL; Cephalosporin 0.1 mL; Ampicillin 0.2 mL
Shigella = assay: as above; assay type: cell-based; settings: (Müller)Hinton-Agar; amount used: The novel compound 0.05 mL; Cephalosporin 0.1 mL; Ampicillin 0.2 mL
Streptococcus pyogenes = assay: as above; assay type: cell-based; settings: (Müller)Hinton-Agar; amount used: The novel compound 0.05 mL; Cephalosporin 0.1 mL; Ampicillin 0.2 mL
Staphylococcus aureus = assay: as above; assay type: cell-based; settings: (Müller)Hinton-Agar; amount used: The novel compound 0.05 mL; Cephalosporin 0.1 mL; Ampicillin 0.2 mL
[2] = phenol group of Carvacrol; cited from earlier work
rats [3] = settings: oral (p.o.), Carvacrol 99,5% concentration, reference value; cited from earlier work
humans = assay: Clinical pilot study for side effects of the compound tablets; assay type: in vivo; settings: 60 humans; 250 mg / 30 kg of the body weight every 12 hours for seven (7) days
Protocol: The reason for this testing was to check if the compound tablets, after a longer period of use, can cause any eventual side effects.
The test results were generated and monitored to obtain the relevant information and facts. In this study, the general monitored parameters were pulse, breathing, ECG (Electrocardiography), any discomfort, adverse events and/or allergy monitoring. These parameters were measured before the treatment with the compound and 15 minutes after its intake. The compound was ingested on the therapeutic days in each patient at 8.00 AM and 8.00 PM CET (paragraph [0026] and paragraph [0027]). After The compound had been consumed, the physician made observations for 30 min. Feeling of the patients during and after the intake of the compound will also be recorded for each participant.
As part of the biochemical analysis of patients' blood, the blood sample of each patient was checked for biochemical parameters. Blood samples were taken from each patient before the beginning of the test, on the 4th day from the tests beginning, and on the 8th day form the tests beginning. The last blood samples have to be checked 12 hours from the last intake of the compound. The biochemical parameters that were measured in blood samples include: • 1. Liver status • 2. C Reactive protein • 3. Kidney Status
The dose was: 250 mg of the compound / 30 kg of the body weight every 12 hours for seven (7) days (paragraph [0026] and paragraph [0027]).
The clinical study started on November 5th, 2019, and was completed on November 29th, 2019.

[4] = system: mammalian cells, mitotic division; assay: Pilot test of effect on mitotic cell division; assay type: cell-based; settings: the compound in tablet form
Description: In the pilot test at the same Institute, the effect of the compound on the mammalian cells, mitotic division has also been tested. It has been investigated if the compound in tablet form will have any negative - suppressive effect on the mitotic cells division. […] It is a positive sign that the compound in tablet form might be used for on pregnant mammals, without danger of the teratogenic effect on the fetus in the wombs, by the pregnant mammals.

mice [5] = assay: Acute toxicity LD50, oral (p.o.), mice; settings: oral dose 2,000 mg/kg
rats [6] = assay: Acute toxicity LD50, parenteral - intraperitoneal (i.p.), rats; settings: i.p. dose 2,500 mg/kg
mice [7] = assay: Acute toxicity LD50, parenteral - intraperitoneal (i.p.), mice; settings: mouse, in vivo
[8] = system: Salmonella strain which requires histidine; assay: Ames test (mutagenic and carcinogenic effect); assay type: cell-based
Description: (The subject of the testing was to determine the mutagenic and carcinogenic effect of the compound in tablet form). The test has been done by the Ames test. This test which is a widely and often used method that use pathogens in most cases bacteria's in order to test whether a given chemical, compound and/or medicine can cause any damage to the DNA of the test organism. This method is fast to conduct and easy to follow to check mutagenic or carcinogenic effect of the tested compound. In the lab dish with a the specially selected Salmonella strain which requires histidine, was added to a rat liver extract. The test has been done using the control-experimental method. In the dish volume of the 20 mL of liquid considered to be a control one, had no the compound in it. Into the dish we consider to be experimental one with also a volume of 20 mL, we added 2 mL of the compound, partly diluted into a glucose injectable solution. The mutagenic test results were negative in both lab dishes - control and experimental plates. The results were identical with no signs of the mutations.

rats [9] = assay: Acute toxicity LD50, oral (p.o.), rats; settings: oral dose 2,500 mg/kg
bacteria = assay: In vitro studies of bactericide effect; assay type: cell-based; settings: compared with Thymol and Carvacrol
Description: Their physiological activity is well known. […] The phenol groups of both Thymol and Carvacrol are very aggressive to pathogens: bacteria, fungi etc. These groups are needed for bioactivity of our product. What has been done was making the phenol group less reactive by reacting them with carboxylic and amino group of glycine. The product should be administered p.o. (per os). The novelty idea was to hydrolyze a part of the new molecule in the stomach by hydrochloric acid. Carvacrol and an ester of Glycine and Thymol will be slowly hydrolyzed into Thymol and Glycine. […] The subject of this invention is to produce a potent entero-antiseptic for the treatment gastrointestinal infections in humans.

CC1(C)S[C@@H]2[C@H](NC(=O)[C@H](N)c3ccccc3)C(=O)N2[C@H]1C(=O)O [Ampicillin]
R (evaluation of the results by zone diameter) (Streptococcus uberis): R (0mm - 4mm: resistant: R)
zone diameter (Streptococcus uberis): 0 mm
R (evaluation of the results by zone diameter) (Streptococcus pneumonia): R (0mm - 4mm: resistant: R)
zone diameter (Streptococcus pneumonia): 0 mm
R (evaluation of the results by zone diameter) (Yersinia): R (0mm - 4mm: resistant: R)
zone diameter (Yersinia): 1 mm
R (evaluation of the results by zone diameter) (Listeria monocytogenes): M S
zone diameter (Listeria monocytogenes): 5 mm
R (evaluation of the results by zone diameter) [1]: M S
zone diameter [1]: 6 mm
R (evaluation of the results by zone diameter) (Escherichia coli 0157H5): M S
zone diameter (Escherichia coli 0157H5): 7 mm
R (evaluation of the results by zone diameter) (Campylobacter): R (0mm - 4mm: resistant: R)
zone diameter (Campylobacter): 0 mm
R (evaluation of the results by zone diameter) (E. coli): R (0mm - 4mm: resistant: R)
zone diameter (E. coli): 2 mm
R (evaluation of the results by zone diameter) (Salmonella): M S
zone diameter (Salmonella): 8 mm
R (evaluation of the results by zone diameter) (Listeria): R (0mm - 4mm: resistant: R)
zone diameter (Listeria): 2 mm
R (evaluation of the results by zone diameter) (Vibrio): R (0mm - 4mm: resistant: R)
zone diameter (Vibrio): 4 mm
R (evaluation of the results by zone diameter) (Shigella): M S
zone diameter (Shigella): 6 mm
R (evaluation of the results by zone diameter) (Streptococcus pyogenes): R (0mm - 4mm: resistant: R)
zone diameter (Streptococcus pyogenes): 3 mm
R (evaluation of the results by zone diameter) (Staphylococcus aureus): R (0mm - 4mm: resistant: R)
zone diameter (Staphylococcus aureus): 0 mm

Cc1ccc(C(C)C)cc1O [Carvacrol]
pKa [2]: 10.4
LD50 (rats [3]): 810 mg/kg

2-(2-isopropyl-5-methylphenoxy)-2-oxoethan-1-aminium 2-isopropyl-5-methylphenolate [The novel compound]
C Reactive Protein (CRP) measurements (humans): no inflammation was developed
Electrocardiography measurements (humans): regular without any pathological and irregular oscillations
kidney functions (urine and blood parameters) (humans): No irregular parameters were reported
liver function biochemical analysis from blood samples (humans): No irregular parameters were reported
pulse frequency and blood pressure (humans): not significantly altered
respiratory function (humans): not disturbed
symptoms of allergy (humans): no symptoms of allergy
tolerance to the compound upon the prescribed dosage (humans): showed tolerance
R (evaluation of the results by zone diameter) (Streptococcus uberis): E S
zone diameter (Streptococcus uberis): 37 mm
negative - suppressive effect on the mitotic cells division [4]: no negative effects
R (evaluation of the results by zone diameter) (Streptococcus pneumonia): E S
zone diameter (Streptococcus pneumonia): 36 mm
R (evaluation of the results by zone diameter) (Yersinia): E S
zone diameter (Yersinia): 30 mm
R (evaluation of the results by zone diameter) (Listeria monocytogenes): E S
zone diameter (Listeria monocytogenes): 38 mm
R (evaluation of the results by zone diameter) [1]: E S
zone diameter [1]: 30 mm
R (evaluation of the results by zone diameter) (Escherichia coli 0157H5): E S
zone diameter (Escherichia coli 0157H5): 29 mm
R (evaluation of the results by zone diameter) (Campylobacter): E S
zone diameter (Campylobacter): 35 mm
mice out of a hundred (100) that changed their behavior and demonstrated light discomfort (mice [5]): 21
rats out of a hundred (100) that changed their behavior and demonstrated discomfort (rats [6]): 35
R (evaluation of the results by zone diameter) (E. coli): E S
zone diameter (E. coli): 32 mm
mice out of a hundred (100) that changed their behavior and demonstrated discomfort (mice [7]): 27
time after which discomfort symptoms disappeared (mice [7]): 3 to 5 min
R (evaluation of the results by zone diameter) (Salmonella): E S
zone diameter (Salmonella): 34 mm
mutagenic test results ([8]; Ames test, rat liver extract, 2 mL of the compound, partly diluted into a glucose injectable solution, in 20 mL dish, preliminary result): negative
carcinogenic effect ([8]; suggested from the negative Ames test result, the compound in tablet form): no carcinogenic effect
R (evaluation of the results by zone diameter) (Listeria): E S
zone diameter (Listeria): 32 mm
R (evaluation of the results by zone diameter) (Vibrio): E S
zone diameter (Vibrio): 33 mm
rats out of a hundred (100) that changed their behavior and demonstrated light discomfort (rats [9]): 37
R (evaluation of the results by zone diameter) (Shigella): E S
zone diameter (Shigella): 31 mm
R (evaluation of the results by zone diameter) (Streptococcus pyogenes): E S
zone diameter (Streptococcus pyogenes): 34 mm
bactericide effect (bacteria): more effective and faster bactericide effect than existing Thymol and Carvacrol
R (evaluation of the results by zone diameter) (Staphylococcus aureus): E S
zone diameter (Staphylococcus aureus): 32 mm
